Data as given in the supplement of paper PMC10307832.

Columns and labels:
Test in all cases: relative viability (nuclei count vs DMSO), 5 days (fraction); higher = more cells survive
[1] = system: LK-2
Method in brief: (§1)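 Five library-drug doses in √10 steps were combined with a fixed anchor-drug dose, or a single drug was given alone, by pin tool to lung cancer cell lines in 1536-well plates the day after seeding. Nuclei were stained and counted after 5 days. Relative viability is the nuclei count in treated wells over that in vehicle wells, taken as the median of duplicate plates.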

[2] = system: 201T
Method in brief: as §1

[3] = system: PC-14
Method in brief: as §1

[4] = system: NCI-H2170
Method in brief: as §1

[5] = system: HARA
Method in brief: as §1

[6] = system: EKVX
Method in brief: as §1

[7] = system: NCI-H3122
Method in brief: as §1

[8] = system: BEN
Method in brief: as §1

[9] = system: COR-L23
Method in brief: as §1

[10] = system: NCI-H727
Method in brief: as §1

[11] = system: NCI-H2009
Method in brief: as §1

[12] = system: NCI-H441
Method in brief: as §1

[13] = system: CAL-12T
Method in brief: as §1

[14] = system: COR-L 105
Method in brief: as §1

[15] = system: SW 900
Method in brief: as §1

[16] = system: LU99A
Method in brief: as §1

[17] = system: NCI-H1437
Method in brief: as §1

[18] = system: HCC-366
Method in brief: as §1

[19] = system: ABC-1
Method in brief: as §1

[20] = system: NCI-H838
Method in brief: as §1

[21] = system: NCI-H661
Method in brief: as §1

[22] = system: NCI-H1666
Method in brief: as §1

[23] = system: NCI-H1650
Method in brief: as §1

C=C1C(=O)O[C@@H](CCCCCCCC)[C@@H]1C(=O)O [C-75] + COc1cc2c(Oc3ccc(NC(=O)C4(C(=O)Nc5ccc(F)cc5)CC4)cc3F)ccnc2cc1OCCCN1CCOCC1 [Foretinib] (partner 0.25 µM)
relative viability ([1]; first compound 0.08 µM): 0.944 | relative viability ([1]; first compound 0.253 µM): 1.23 | relative viability ([1]; first compound 0.8 µM): 1.15 | relative viability ([1]; first compound 2.53 µM): 1.35 | relative viability ([1]; first compound 8 µM): 1.06 | relative viability ([2]; first compound 0.08 µM): 1.08 | relative viability ([2]; first compound 0.253 µM): 1.24 | relative viability ([2]; first compound 0.8 µM): 1.08 | relative viability ([2]; first compound 2.53 µM): 0.64 | relative viability ([2]; first compound 8 µM): 1.03 | relative viability ([3]; first compound 0.08 µM): 0.949 | relative viability ([3]; first compound 0.253 µM): 0.911 | relative viability ([3]; first compound 0.8 µM): 0.956 | relative viability ([3]; first compound 2.53 µM): 0.74 | relative viability ([3]; first compound 8 µM): 0.891 | relative viability ([4]; first compound 0.08 µM): 1.06 | relative viability ([4]; first compound 0.253 µM): 1.01 | relative viability ([4]; first compound 0.8 µM): 0.987 | relative viability ([4]; first compound 2.53 µM): 0.591 | relative viability ([4]; first compound 8 µM): 0.986 | relative viability ([5]; first compound 0.08 µM): 0.822 | relative viability ([5]; first compound 0.253 µM): 0.93 | relative viability ([5]; first compound 0.8 µM): 0.819 | relative viability ([5]; first compound 2.53 µM): 0.769 | relative viability ([5]; first compound 8 µM): 0.979 | relative viability ([6]; first compound 0.08 µM): 0.644 | relative viability ([6]; first compound 0.253 µM): 0.925 | relative viability ([6]; first compound 0.8 µM): 0.782 | relative viability ([6]; first compound 8 µM): 1.06 | relative viability ([7]; first compound 0.08 µM): 0.966 | relative viability ([7]; first compound 0.253 µM): 0.848 | relative viability ([7]; first compound 0.8 µM): 0.936 | relative viability ([7]; first compound 2.53 µM): 0.952 | relative viability ([7]; first compound 8 µM): 0.983 | relative viability ([8]; first compound 0.08 µM): 0.712 | relative viability ([8]; first compound 0.253 µM): 0.671 | relative viability ([8]; first compound 0.8 µM): 0.547 | relative viability ([8]; first compound 8 µM): 0.478 | relative viability ([9]; first compound 0.08 µM): 0.903 | relative viability ([9]; first compound 0.253 µM): 1 | relative viability ([9]; first compound 0.8 µM): 0.856 | relative viability ([9]; first compound 2.53 µM): 0.9 | relative viability ([9]; first compound 8 µM): 0.965 | relative viability ([10]; first compound 0.08 µM): 0.796 | relative viability ([10]; first compound 0.253 µM): 1.33 | relative viability ([10]; first compound 0.8 µM): 0.695 | relative viability ([10]; first compound 8 µM): 0.917 | relative viability ([11]; first compound 0.08 µM): 1.21 | relative viability ([11]; first compound 0.253 µM): 1.2 | relative viability ([11]; first compound 0.8 µM): 1.12 | relative viability ([11]; first compound 2.53 µM): 1.13 | relative viability ([11]; first compound 8 µM): 1.04 | relative viability ([12]; first compound 0.08 µM): 1.01 | relative viability ([12]; first compound 0.253 µM): 0.958 | relative viability ([12]; first compound 0.8 µM): 1.03 | relative viability ([12]; first compound 2.53 µM): 0.789 | relative viability ([12]; first compound 8 µM): 1.15 | relative viability ([13]; first compound 0.08 µM): 1.17 | relative viability ([13]; first compound 0.253 µM): 1.34 | relative viability ([13]; first compound 0.8 µM): 1.07 | relative viability ([13]; first compound 2.53 µM): 1.05 | relative viability ([13]; first compound 8 µM): 1.25 | relative viability ([14]; first compound 0.08 µM): 0.934 | relative viability ([14]; first compound 0.253 µM): 1.17 | relative viability ([14]; first compound 0.8 µM): 1.12 | relative viability ([14]; first compound 2.53 µM): 0.828 | relative viability ([14]; first compound 8 µM): 1 | relative viability ([15]; first compound 0.08 µM): 0.913 | relative viability ([15]; first compound 0.253 µM): 1.07 | relative viability ([15]; first compound 0.8 µM): 0.842 | relative viability ([15]; first compound 2.53 µM): 0.945 | relative viability ([15]; first compound 8 µM): 0.804 | relative viability ([16]; first compound 0.08 µM): 0.809 | relative viability ([16]; first compound 0.253 µM): 0.71 | relative viability ([16]; first compound 0.8 µM): 0.831 | relative viability ([16]; first compound 2.53 µM): 0.783 | relative viability ([16]; first compound 8 µM): 0.63 | relative viability ([17]; first compound 0.08 µM): 1.27 | relative viability ([17]; first compound 0.253 µM): 1.45 | relative viability ([17]; first compound 0.8 µM): 1.28 | relative viability ([17]; first compound 2.53 µM): 1.13 | relative viability ([17]; first compound 8 µM): 1.23 | relative viability ([18]; first compound 0.08 µM): 0.909 | relative viability ([18]; first compound 0.253 µM): 0.961 | relative viability ([18]; first compound 0.8 µM): 0.877 | relative viability ([18]; first compound 8 µM): 0.845 | relative viability ([19]; first compound 0.08 µM): 1.16 | relative viability ([19]; first compound 0.253 µM): 1.24 | relative viability ([19]; first compound 0.8 µM): 0.913 | relative viability ([19]; first compound 2.53 µM): 1.18 | relative viability ([19]; first compound 8 µM): 0.81 | relative viability ([20]; first compound 0.08 µM): 1.06 | relative viability ([20]; first compound 0.8 µM): 0.948 | relative viability ([20]; first compound 2.53 µM): 0.861 | relative viability ([20]; first compound 8 µM): 0.964 | relative viability ([21]; first compound 0.08 µM): 1.06 | relative viability ([21]; first compound 0.253 µM): 1.01 | relative viability ([21]; first compound 0.8 µM): 0.998 | relative viability ([21]; first compound 2.53 µM): 0.901 | relative viability ([21]; first compound 8 µM): 0.896 | relative viability ([22]; first compound 0.08 µM): 0.991 | relative viability ([22]; first compound 0.253 µM): 1.01 | relative viability ([22]; first compound 0.8 µM): 0.969 | relative viability ([22]; first compound 2.53 µM): 0.732 | relative viability ([22]; first compound 8 µM): 0.777 | relative viability ([23]; first compound 0.08 µM): 1.2 | relative viability ([23]; first compound 0.253 µM): 1.41 | relative viability ([23]; first compound 2.53 µM): 1.11 | relative viability ([23]; first compound 8 µM): 1.04
